The test system of one data set is Echinochloa crus-galli. The data set can be described thus: Test Example 2: herbicidal effects in farmland soil treatment. The conditions noted are these: 1000 g active ingredient per hectare, 21st day after treatment. In kind it is in vivo. Set-up: scale not given here.
In data set [1] the test system is Setaria viridis. The data set can be described thus: Test Example 3: herbicidal effects in farmland foliar treatment. Set-up: scale not given here. In kind it is in vivo. The following applies: 1000 g active ingredient per hectare, 14th day after treatment.
The subject of data set [2] is Monochoria vaginalis (Burm. f.) Presl var. plantaginea (Roxb.) Solms-Laub. The data set can be described thus: Test Example 1: herbicidal effects in paddy field soil treatment. The format is in vivo. Set-up: scale not given here. The conditions noted are these: 1000 g active ingredient per hectare, 21st day after treatment. Here is the method: (§1) 100-cm^2 plastic pots were filled with paddy field soil. After puddling and leveling, seeds of Echinochloa oryzicola Vasing, Monochoria vaginalis (Burm. f.) Presl var. plantaginea (Roxb.) Solms-Laub., and Scirpus juncoides Roxb. var. ohwianus. T. Koyama were sowed in the pots, and the soil was waterlogged to a water depth of 3 cm. On the next day, a wettable powder formulation prepared according to Formulation Example 1 was diluted with water, and the dilution was added dropwise onto the water surface. The amount of application was an amount equivalent to 1000 g of the active ingredient per hectare. Thereafter, the plants were grown in a greenhouse, and on the 21st day after the treatment, the herbicidal effects were investigated according to the criteria described in Table 71.
(§2) In addition, comparative compound A, comparative compound B, comparative compound C, and comparative compound D in the tables represent Compound Nos. 70, 34, 32, and 31, respectively, as described in EP-283261. The structural formulas of these compounds are presented below.

Data set [3] relates to Scirpus juncoides Roxb. var. ohwianus. T. Koyama. The data set is described as above. In kind it is in vivo. Also on record: scale not given here. The conditions noted are these: 1000 g active ingredient per hectare, 21st day after treatment. How it is done: as §1, §2
In data set [4] the test system is Echinochloa oryzicola Vasing. Described as above. In kind it is in vivo. Also on record: scale not given here. The conditions noted are these: 1000 g active ingredient per hectare, 21st day after treatment. Here is the method:
as §1, §2

For data set [5], the system named is Amaranthus retroflexus. The data set can be described thus: Test Example 2: herbicidal effects in farmland soil treatment. The format is in vivo. Also on record: scale not given here. The following applies: 1000 g active ingredient per hectare, 21st day after treatment. How it is done: (§3) 80-cm^2 plastic pots were filled with farmland soil. Seeds of Abutilon theophrasti medicus and Amaranthus retroflexus were sowed in the pots, and soil was covered. A wettable powder formulation prepared according to Formulation Example 1 was diluted with water, and the dilution was uniformly sprayed on the soil surface with a small sprayer, in an amount equivalent to 1000 liters per hectare, such that 1000 g of the active ingredient was applied per hectare. Thereafter, the plants were grown in a greenhouse, and on the 21st day after the treatment, the herbicidal effects were investigated according to the criteria described in Table 71 shown above.

Data set [6] deals with Abutilon theophrasti medicus. The description is as above. In kind it is in vivo. Set-up: scale not given here. The following applies: 1000 g active ingredient per hectare, 21st day after treatment. Here is the method:
as §3

Data set [7] has as its system Amaranthus retroflexus. Nature of the data set: Test Example 3: herbicidal effects in farmland foliar treatment. In kind it is in vivo. Also on record: scale not given here. The following applies: 1000 g active ingredient per hectare, 14th day after treatment. How it is done: (§4) 80-cm^2 plastic pots were filled with farmland soil. Seeds of Echinochloa crus-galli (L.) P. Beauv. var. crus-galli, Abutilon theophrasti medicus, and Amaranthus retroflexus were sowed in the pots, and the plants were grown for two weeks in a greenhouse. A wettable powder formulation prepared according to Formulation Example 1 was diluted with water, and the dilution was applied by foliar treatment by spraying with a small sprayer over the whole plant from the upper part, in an amount equivalent to 1000 liters per hectare, such that 1000 g of the active ingredient was applied per hectare. Thereafter, the plants were grown in a greenhouse, and on the 14th day after the treatment, the herbicidal effects were investigated according to the criteria described in Table 71 shown above.

Data set [8] relates to Echinochloa crus-galli (L.) P. Beauv. var. crus-galli. The data set is described as above. In kind it is in vivo. Set-up: scale not given here. The conditions noted are these: 1000 g active ingredient per hectare, 14th day after treatment. Here is the method: as §4
Data set [9] concerns Abutilon theophrasti medicus. The description is as above. In kind it is in vivo. Set-up: scale not given here. The conditions noted are these: 1000 g active ingredient per hectare, 14th day after treatment. How it is done:
as §4

Data set [10] relates to Setaria viridis. The data set can be described thus: Test Example 2: herbicidal effects in farmland soil treatment. The conditions noted are these: 1000 g active ingredient per hectare, 21st day after treatment. Also on record: scale not given here. The format is in vivo.

A word on the melting point: it is the temperature, or range, at which the solid turns liquid. `O=C1CCCC(O)=C1C(=O)c1cc2cccnc2n(-c2ccc3c(c2)OCCO3)c1=O` [II-118, 1-(2,3-dihydrobenzo[b][1,4]dioxin-6-yl)-3-(2-hydroxy-6-oxo-1-cyclohexenecarbonyl)-1,8-naphthyridin-2(1H)-one] returned a melting point of 226 to 228 °C. Further, the “Herbicidal effect index, Echinochloa crus-galli” value in the data set with Echinochloa crus-galli amounted to 5. The “Herbicidal effect index, Setaria viridis” value with Setaria viridis [1] came to 5. In addition, the “Herbicidal effect index, Monochoria vaginalis” value in data set [2] stood at 5. For the same compound, in [3], the “Herbicidal effect index, Scirpus juncoides” value was determined as 5. Further, in data set [4], the “Herbicidal effect index, Echinochloa oryzicola” value is listed as 5. Also, the “Herbicidal effect index, Amaranthus retroflexus” value in the data set with Amaranthus retroflexus [5] is given as 5. Besides, the “Herbicidal effect index, Abutilon thophrasti” value in data set [6] was 5. The “Herbicidal effect index, Amaranthus retroflexus” value in the data set on Amaranthus retroflexus [7] was determined as 5. In addition, the “Herbicidal effect index, Echinochloa crus-galli” value in data set [8] was 5. For the same compound, the “Herbicidal effect index, Abutilon theoprasti” value in data set [9] is 5. Besides, in the data set with Setaria viridis [10], the “Herbicidal effect index, Setaria viridis” value came to 5.
Turning to `Cc1cc(-n2c(=O)c(C(=O)C3=C(O)CCCC3=O)cc3cccnc32)no1` [II-63, 3-(2-hydroxy-6-oxo-1-cyclohexenecarbonyl)-1-(5-methyl-3-isoxazolyl)-1,8-naphthyridin-2(1H)-one], the melting point lay in the range of 113 to 116 °C. For the same compound, the “Herbicidal effect index, Echinochloa crus-galli” value with Echinochloa crus-galli is recorded as 4. Besides, the “Herbicidal effect index, Setaria viridis” value in the data set on Setaria viridis [1] is listed as 5. In addition, the “Herbicidal effect index, Monochoria vaginalis” value in [2] is listed as 5. Moreover, the “Herbicidal effect index, Scirpus juncoides” value in data set [3] amounted to 5. The “Herbicidal effect index, Echinochloa oryzicola” value in [4] turned out to be 5. Also, the “Herbicidal effect index, Amaranthus retroflexus” value in the data set with Amaranthus retroflexus [5] is reported as 5. In addition, in data set [6], the “Herbicidal effect index, Abutilon thophrasti” value is recorded as 5. For the same compound, the “Herbicidal effect index, Amaranthus retroflexus” value in the data set with Amaranthus retroflexus [7] turned out to be 5. Besides, the “Herbicidal effect index, Echinochloa crus-galli” value in data set [8] came out at 5. In data set [9], the “Herbicidal effect index, Abutilon theoprasti” value is listed as 5. In addition, the “Herbicidal effect index, Setaria viridis” value in the data set on Setaria viridis [10] came out at 3.
`Cn1c(=O)c(C(=O)C2=C(O)CCCC2=O)cc2ccccc21` [I-2, 3-(2-hydroxy-6-oxo-1-cyclohexenecarbonyl)-1-methylquinolin-2(1H)-one] yielded a melting point of 179 to 181 °C. Besides, the “Herbicidal effect index, Monochoria vaginalis” value in data set [2] is listed as 5. Moreover, the “Herbicidal effect index, Scirpus juncoides” value in data set [3] amounted to 5. Moreover, the “Herbicidal effect index, Echinochloa oryzicola” value in [4] worked out at 5.
Take `COc1ccccc1Cn1c(=O)c(C(=O)C2=C(O)CCCC2=O)cc2cccnc21` [II-37, 3-(2-hydroxy-6-oxo-1-cyclohexenecarbonyl)-1-(2-methoxybenzyl)-1,8-naphthyridin-2(1H)-one]: the melting point fell in the range of 147 to 150 °C. For the same compound, in data set [2], the “Herbicidal effect index, Monochoria vaginalis” value stood at 5. Further, in [3], the “Herbicidal effect index, Scirpus juncoides” value came to 5. For the same compound, in data set [4], the “Herbicidal effect index, Echinochloa oryzicola” value turned out to be 5.
The compound `O=C1CCCC(O)=C1C(=O)c1cc2cccnc2n(-c2ccccc2)c1=O` [II-41, 3-(2-hydroxy-6-oxo-1-cyclohexenecarbonyl)-1-phenyl-1,8-naphthyridin-2(1H)-one] returned a melting point of 212 to 214 °C. Besides, the “Herbicidal effect index, Echinochloa crus-galli” value in the data set on Echinochloa crus-galli turned out to be 5. Moreover, in the data set on Setaria viridis [1], the “Herbicidal effect index, Setaria viridis” value came out at 5. Besides, in [2], the “Herbicidal effect index, Monochoria vaginalis” value was determined as 5. Moreover, the “Herbicidal effect index, Scirpus juncoides” value in data set [3] was found to be 5. Further, the “Herbicidal effect index, Echinochloa oryzicola” value in [4] was 5. For the same compound, the “Herbicidal effect index, Amaranthus retroflexus” value in the data set on Amaranthus retroflexus [5] is 5. Also, the “Herbicidal effect index, Abutilon thophrasti” value in data set [6] stood at 5. In addition, the “Herbicidal effect index, Amaranthus retroflexus” value in the data set with Amaranthus retroflexus [7] was found to be 5. Moreover, the “Herbicidal effect index, Echinochloa crus-galli” value in data set [8] was 5. Further, the “Herbicidal effect index, Abutilon theoprasti” value in data set [9] was determined as 5. Moreover, the “Herbicidal effect index, Setaria viridis” value with Setaria viridis [10] is on record as 5.
Turning to `O=C1CCCC(O)=C1C(=O)c1cc2cccnc2n(Cc2ccccc2)c1=O` [II-24, 1-benzyl-3-(2-hydroxy-6-oxo-1-cyclohexenecarbonyl)-1,8-naphthyridin-2(1H)-one], the melting point lay within 190 to 192 °C. Besides, the “Herbicidal effect index, Echinochloa crus-galli” value in the data set with Echinochloa crus-galli was 5. Also, in data set [2], the “Herbicidal effect index, Monochoria vaginalis” value is 5. Also, in [3], the “Herbicidal effect index, Scirpus juncoides” value is 5. In addition, the “Herbicidal effect index, Echinochloa oryzicola” value in data set [4] is recorded as 5. Besides, in the data set with Amaranthus retroflexus [5], the “Herbicidal effect index, Amaranthus retroflexus” value is reported as 5. Moreover, the “Herbicidal effect index, Abutilon thophrasti” value in data set [6] was determined as 5. The “Herbicidal effect index, Setaria viridis” value with Setaria viridis [10] worked out at 3.
In the case of `CC1(C)CCC(=O)C(C(=O)c2cnc3ccccc3n2)=C1O` [Comparative compound D, reference compound], the “Herbicidal effect index, Echinochloa crus-galli” value with Echinochloa crus-galli is 2; in data set [8], 0. The “Herbicidal effect index, Setaria viridis” value in the data set on Setaria viridis [1] and with Setaria viridis [10] was 0 throughout. Further, in data set [2], the “Herbicidal effect index, Monochoria vaginalis” value was found to be 4. Further, in [3], the “Herbicidal effect index, Scirpus juncoides” value is 2. The “Herbicidal effect index, Echinochloa oryzicola” value in [4] was determined as 1. Also, the results for the “Herbicidal effect index, Amaranthus retroflexus” value with Amaranthus retroflexus [5] and with Amaranthus retroflexus [7] were 3 and 1, respectively. In addition, the “Herbicidal effect index, Abutilon thophrasti” value in data set [6] is 0. Moreover, the “Herbicidal effect index, Abutilon theoprasti” value in data set [9] is given as 4.
For `Cn1c(=O)c(C(=O)C2=C(O)CCCC2=O)cc2ccc(C(F)(F)Cl)nc21` [II-141], the “Herbicidal effect index, Echinochloa crus-galli” value (in the data set on Echinochloa crus-galli; in data set [8]) was 3 in each case. Besides, the “Herbicidal effect index, Setaria viridis” value in the data set with Setaria viridis [1] and in the data set on Setaria viridis [10] was 4 each time. Besides, the “Herbicidal effect index, Monochoria vaginalis” value in [2] was found to be 5. In data set [3], the “Herbicidal effect index, Scirpus juncoides” value turned out to be 5. In addition, the “Herbicidal effect index, Echinochloa oryzicola” value in data set [4] amounted to 5. The “Herbicidal effect index, Amaranthus retroflexus” value with Amaranthus retroflexus [5] was determined as 3; in the data set on Amaranthus retroflexus [7] it was 4. In data set [6], the “Herbicidal effect index, Abutilon thophrasti” value is given as 5. The “Herbicidal effect index, Abutilon theoprasti” value in [9] came to 5.
In the case of `O=C1CCCC(O)=C1C(=O)c1cc2cccnc2n(-c2cccc(C(F)(F)F)c2)c1=O` [II-52], the “Herbicidal effect index, Echinochloa crus-galli” value (in the data set with Echinochloa crus-galli; in [8]) was 5 each time. Further, the “Herbicidal effect index, Setaria viridis” value in the data set with Setaria viridis [1] and with Setaria viridis [10] was 5 throughout. Moreover, the “Herbicidal effect index, Monochoria vaginalis” value in data set [2] is on record as 5. Besides, the “Herbicidal effect index, Scirpus juncoides” value in [3] stood at 5. Besides, in data set [4], the “Herbicidal effect index, Echinochloa oryzicola” value came to 5. The “Herbicidal effect index, Amaranthus retroflexus” value in the data set with Amaranthus retroflexus [5] and in the data set on Amaranthus retroflexus [7] was 5 each time. Besides, the “Herbicidal effect index, Abutilon thophrasti” value in [6] turned out to be 5. Besides, the “Herbicidal effect index, Abutilon theoprasti” value in data set [9] came to 5.
`O=C1CCCC(O)=C1C(=O)c1cc2cccnc2n(-c2cccc(F)c2)c1=O` [II-43]: the “Herbicidal effect index, Echinochloa crus-galli” value (with Echinochloa crus-galli; in [8]) was 5 each time. The “Herbicidal effect index, Setaria viridis” value in the data set with Setaria viridis [1] and in the data set on Setaria viridis [10] was 5 in each case. Further, in data set [2], the “Herbicidal effect index, Monochoria vaginalis” value is listed as 5. Moreover, the “Herbicidal effect index, Scirpus juncoides” value in data set [3] amounted to 5. Besides, the “Herbicidal effect index, Echinochloa oryzicola” value in data set [4] was determined as 5. Besides, the “Herbicidal effect index, Amaranthus retroflexus” value in the data set with Amaranthus retroflexus [5] and in the data set with Amaranthus retroflexus [7] was 5 throughout. In addition, the “Herbicidal effect index, Abutilon thophrasti” value in data set [6] stood at 5. For the same compound, the “Herbicidal effect index, Abutilon theoprasti” value in data set [9] came to 5.

(Values after patent US8334236B2, “Ring-fused 2-pyridone derivatives and herbicides” (Kumiai Chemical Industry Co., Ltd., priority 2009, dated 2012).)
